Experimental data as given in patent publication US11266664B2, “Use of homosalate and octyl salicylate to treat multiple sclerosis” (Wisconsin Alumni Research Foundation, priority 2016, dated 2022).
“Also recorded” adds a separate entry of the source.

Assays:
[1] = Adverse effects of topical application; format: in vivo, mice
[2] = Body weight of EAE mice, weighed weekly; format: in vivo; conditions: for Body weight at three doses: topical 0.5, 1.0, 1.5 g/kg, all treatments except homosalate 0.5 g/kg (FIG. 8B); for Body weight of EAE mice given sunscreen ingredients: topical daily day 0-30, amount equal to that in the sunscreen
Protocol: Referring to FIGS. 2A and 2B, we analyzed different sunscreen ingredients. […] Mice were treated with ingredients (avobenzone, oxybenzone or combination) of sunscreen by topical administration daily during EAE (day 0-day 30). Sunscreen spray 200 μl was also used as a positive control. Each mouse was scored daily and weighed weekly during the experiment (30 days). Data are expressed as mean value, N=10-12/group.
Mice were treated with ingredients (homosalate, octyl salicylate or combination) of sunscreen by topical administration daily during EAE (day 0-day 30). Sunscreen spray 200 μl daily was used as a positive control. Mice were scored daily and weighed weekly. Data were expressed as mean value, N=10-12/group.

[3] = test system: EAE mice; assay: MOG35-55-induced EAE in mice, daily clinical score (0-5); format: in vivo; conditions: for Mean Severity / CDI / Day of onset: as E1, mean ± SD; for Mean Severity: clinical score 0-5 averaged over the entire experiment; for CDI: clinical scores summed per animal, divided by mice per group; for Effective topical dose in a mouse model: daily; for Dose dependence of EAE suppression: topical 10, 20 and 30 μl or 0.5, 1.0, 1.5 g/kg (FIG. 8A); for Suppression of EAE (mean clinical score) by sunscreen ingredients: topical daily day 0-30, amount equal to that in the sunscreen: homosalate 1.5 g/kg, octisalate 0.5 g/kg, 12% avobenzone, 16% oxybenzone in 25 μl DMSO; for Incidence: topical daily day 0-30, homosalate 30 μl (1.5 g/kg), octisalate 10 μl (0.5 g/kg), sunscreen spray 200 μl, N=11-12, * P<0.05 vs Control; for Suppression of EAE at 1.5 g/kg: topical, ca 1.5 g/kg
Protocol: Animals and Diet. Female C57BL/6 mice (8-9 weeks old) purchased from Jackson Laboratory were fed a standard lab diet chow 5008 (Purina Mills, Richmond, Ind.) and maintained in the Department of Biochemistry's vivarium. The mice were exposed to 12 h light-dark cycles. All procedures were approved by the Research Animal Resources Committee of the College of Agricultural & Life Sciences, University of Wisconsin-Madison. The mice were randomly divided into groups for different treatment (12 mice/group).
Mice were shaved on their back to receive sunscreen or NBUVB radiation. The following Sunscreen cream or spray was used in our study (See Appendix A): 1. Coppertone spray (SPF 50, MSD Consumer Care, Inc., Memphis, Tenn.); 2. Coppertone water babies (SPF 50, MSD Consumer Care, Inc., Memphis, Tenn.); 3. Hawaiian Tropic (SPF 50, Energizer Personal Care, LLC, Shelton, Conn.); 4. Kiss my face (SPF 50, Kiss My Face, LLC, Gardiner, N.Y.); 5. Blue Lizard Australian Sunscreen (SPF 30, Crown Laboratories, Johnson, Tenn.); 6. Banana Boat Kids (SPF 50, Energizer Personal Care, LLC, Shelton, Conn.); 7. CoTZ Face (SPF40, CoTZ Skincare, West Norriton, Pa.). The sunscreen was applied manually to cover the shaved skin daily depending on the experimental schedule. Four main active ingredients (avobenzone; oxibenzone; homosalate; octyl salicylate) were purchased from Spectrum Chemical MFG. Corp. (New Brunswick, N.J.). The total dose of each ingredient administrated topically on each mouse skin was equal to the amount of the ingredient in the sunscreen.
In this experiment, mice were immunized with myelin oligodendrocyte glycoprotein peptide (MOG)35-55. MOG35-55 kit (EK-2110) was purchased from Hooke lab (Lawrence, Mass.). Each mouse was immunized with subcutaneous injection of 20 μl MOG35-55/CFA emulsion and intraperitoneally injection with 200 ng of pertussis toxin (List Biological Laboratories) diluted in sterile PBS. The second booster pertussis toxin injection was given 48 hours later. Each mouse was scored daily for clinical signs of EAE using the following scale: 0, no clinical disease; 1, loss of tail tone; 2, unsteady gait; 3, hind limb paralysis; 4, forelimb paralysis; 5, death.
Onset was calculated by averaging the first day when clinical signs appeared and continued for at least 2 days. Mean severity was determined by averaging the clinical scores during the entire experiment. The CDI (clinical disease index) was calculated by summing the clinical scores in each animal and divided by the number of mice per group. Statistical analyses were performed using the two-tailed Fisher exact probability test for incidence, the Mann-Whitney nonparametric u test for clinical scores, and the unpaired Student t test for all other measurements. A value of P<0.05 was considered statistically significant.
Female C57BL/6 mice (8-10 weeks old) purchased from Jackson Laboratory (Bar Harbor, Me.) were fed a standard lab chow 5008 (Purina Mills, Richmond, Ind.). The mice were exposed to 12 h light-dark cycles. In one experiment the animals were kept in darkness at all times. All procedures were approved by the Institutional Animal Care and Use Committee of the College of Agricultural & Life Sciences, University of Wisconsin-Madison.
Mice were immunized with MOG35-55 kit (EK-2110, purchased from Hooke lab (Lawrence, Mass.)). Each mouse was immunized with a subcutaneous injection of 20 μl MOG35-55/CFA emulsion and an intraperitoneal injection with 200 ng of pertussis toxin (List Biological Laboratories) diluted in sterile PBS (14). A second booster pertussis toxin injection was given 48 hours later. Each mouse was scored daily for clinical signs of EAE using the following scale: 0, no clinical disease; 1, loss of tail tone; 2, unsteady gait; 3, hindlimb paralysis; 4, forelimb paralysis; 5, death (15).
Sunscreen creams or spray applied topically to the shaved back skin of the mice daily are shown below (Table 2): 1. […]

[4] = test system: ear edema; conditions: ear edema test in mice, reference 7; cited from earlier work
[5] = test system: rabbits; conditions: unpublished; cited from earlier work
[6] = test system: MS; conditions: studied in 1961, reference 9; cited from earlier work

Compound	Adverse effect [1]	Body weight of EAE mice given sunscreen ingredients [2]	Mean Severity [3]	CDI [3]	Day of onset [3]	Effective topical dose in a mouse model [3] [g/kg]	Suppression of EAE (mean clinical score) by sunscreen ingredients [3]	Incidence [3]	Suppression of EAE at 1.5 g/kg [3]	also measured
CC1CC(OC(=O)c2ccccc2O)CC(C)(C)C1 (centres unmarked) [Homosalate, 3,3,5-trimethylcyclohexyl 2-hydrobenzoate]	temporary mild skin irritation	without affecting body weight	1.3 ± 0.0	1 ± 0	22 ± 0	1.5	significantly suppress EAE	8% (1/12) *	equally active; also recorded: completely blocked EAE	Body weight at three doses [2]: increased the body weight; also recorded: significantly different from control; Effectiveness when applied less frequently than each day ([3]; homosalate 1.5 g/kg topically (FIGS. 8C and 8D)): effectiveness diminished; Mean EAE score, applied every day and every 2-day ([3]; homosalate 30 μl or 1.5 g/kg topically (FIGS. 8C and 8D), p<0.05): significantly lower than control; Dose dependence of EAE suppression [3]: dose-dependent suppression of EAE; also recorded: dose dependent suppression of EAE; Suppression of EAE (mean clinical score) by sunscreen ingredients ([3]; listed as homosalate): dramatically suppress EAE development; also recorded: provide the protection; also recorded: dramatically suppressed EAE severity; also recorded: complete suppression of EAE; also recorded: almost completely prevented EAE development; Anti-inflammatory effect [4]: demonstrated; Acute dermal toxicity LD50 [5]: > 5 g/kg
CC(=O)Oc1ccccc1C(=O)O [aspirin, acetylsalicylic acid]										Relationship between aspirin and MS, control vs treated group [6]: without a significant difference between the control and treated group
COc1ccc(C(=O)CC(=O)c2ccc(C(C)(C)C)cc2)cc1 [avobenzone, reference compound]		no significant change in body weight					partially suppress EAE severity; also recorded: little to no significant suppression of EAE; also recorded: fail to suppress EAE; also recorded: slightly suppressed disease progression			Suppression of EAE (mean clinical score) by sunscreen ingredients ([3]; listed as Avobenzone): partially suppress EAE severity
CCCCC(CC)COC(=O)c1ccccc1O (centres unmarked) [octyl salicylate, 2-ethylhexyl salicylate]	temporary mild skin irritation	without affecting body weight	2.0 ± 0.8	20 ± 1	18 ± 3	0.5	dramatically suppress EAE development; also recorded: provide the protection; also recorded: almost completely prevented EAE development	75% (9/12)	equally active	Body weight at three doses ([2]; listed as octisalate): increased the body weight; also recorded: significantly different from control; Dose dependence of EAE suppression ([3]; listed as octisalate): dose-dependent suppression of EAE; also recorded: dose dependent suppression of EAE; Suppression of EAE (mean clinical score) by sunscreen ingredients ([3]; listed as Octisalate): moderate suppression but did not reach statistical significance; Suppression of EAE (mean clinical score) by sunscreen ingredients ([3]; listed as octisalate): complete suppression of EAE; also recorded: significantly suppress EAE
COc1ccc(C(=O)c2ccccc2)c(O)c1 [oxybenzone, reference compound]		no significant change in body weight					partially suppress EAE severity; also recorded: little to no significant suppression of EAE; also recorded: fail to suppress EAE; also recorded: slightly suppressed disease progression			
